“And” between values parts separate entries of the source, which are not always exact repeats. Equal values may be shown once. Read-outs that look alike come from different tables or passages of the source.
Experiments:
B16 tumor = assay: Response of B16 tumors to suboptimal cisplatin chemotherapy in WT and PHD2+/− mice; format: in vivo, mouse; details: for anti-tumor effect in PHD2+/− mice / anti-tumor effect in WT mice: B16 tumor
Procedure: […] TUMOR MODELS: 5 105 B16F10.9 melanoma and 105 Lewis lung carcinoma (LLC) cells were injected subcutaneously into the right flank or foot pad, respectively. […] Circulating tumor cells were scored on 1 ml of peripheral blood upon red blood cell lysis.
[…] […] The mice were sacrificed at defined time intervals after cell inoculation or when tumors reached a maximum size of 2 cm3.

[1] = test system: Lewis Lung Carcinoma (LLC); assay: Response of LLC tumors to suboptimal doxorubicin chemotherapy in WT and PHD2+/− mice; details: doxorubicin 2.5 mg/kg 3×/week
[2] = Cornea pocket assay with pellets containing VEGF or FGF-2; format: in vivo, mouse
Excerpt: We also performed cornea pocket assays and implanted pellets, containing VEGF or FGF-2, in endothelial PHD2Cre/+ mice.

[3] = cisplatin 2.5 mg/kg 3×/week, listed as Cisplatin
[4] = PHD2+/− hearts upon doxorubicin treatment
[5] = PHD2+/− hearts upon doxorubicin treatment, versus WT

## N.N.[Cl][Pt][Cl] [cisplatin]
B16 tumor; cisplatin 2.5 mg/kg 3×/week
  anti-tumor effect in PHD2+/− mice: effective
  anti-tumor effect in WT mice: does not kill B16 tumor cells
B16 tumor; [3]
  anti-tumor effect in PHD2+/− mice: reduced the volume (A) and weight (B) of B16 tumor
  anti-tumor effect in WT mice: not effective
B16 tumor; cisplatin 2.5 mg/kg 3×/week, B16 tumors, 11 days after initiation of chemotherapy
  tumor size, smaller in PHD2+/− than WT mice: 60%
B16 tumor; tumors implanted in PHD2+/− mice upon cisplatin treatment
  tumor apoptosis (active caspase 3): increased
B16 tumor; tumors implanted in PHD2+/− mice upon cisplatin treatment, compared to WT
  tumor proliferation: reduced

## COc1cccc2c1C(=O)c1c(O)c3c(c(O)c1C2=O)C[C@@](O)(C(=O)CO)C[C@@H]3O[C@H]1C[C@H](N)[C@H](O)[C@H](C)O1 [doxorubicin]
PHD1 and PHD3 deficient mice after 2 months of treatment
  cardiac hypertrophy: significant cardiac hypertrophy
[4]
  capillary perfusion: preserved
  oxidative stress (cardiac ROS): reduced
[5]
  Brain Natriuretic Peptide (BNP) expression: lower levels
  interstitial fibrosis: reduced interstitial fibrosis
PHD2+/− mice upon doxorubicin treatment
  ejection fraction (EF): maintain or preserve the baseline EF levels
WT hearts upon doxorubicin treatment
  capillary perfusion: not preserved
Doxorubicin 2.5 mg/kg 3×/week for four weeks, PHD2+/− mice
  cardiac damage: protected against cardiac damage
wild-type mice upon doxorubicin treatment
  ejection fraction (EF): decreases
[1]
  anti-tumor effect in PHD2+/− mice: responsive
[1]; listed as Doxorubicin
  anti-tumor effect in PHD2+/− mice: reduced the volume of LLC (Lewis lung carcinoma) tumor
[1]; WT mice
  anti-tumor effect in WT mice: not effective

## FGF-2: growth factor implanted as pellet in cornea pocket assay
[2]; PHD2Cre/+ mice, N=4
  branching points per mm2: 580±87 per mm2
  vessel area: 33.4±4%
[2]; PHD2lox/+ mice, N=4
  branching points per mm2: 511±48 per mm2

## VEGF
[2]; PHD2Cre/+ mice, N=4
  vessel area: 23.2±1.6%
[2]; PHD2lox/+ mice, N=4
  vessel area: 27.7±2.3%
[2]; mouse, in vivo
  branching points per mm2: 387±52 per mm2 and 345±60 per mm2
